Measurements: ChEMBL document CHEMBL1201862, “PubChem BioAssay data set” (2004)
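These data come from cells grown in 96-well plates and exposed to compound for 48 hours at five concentrations. GI50 is the concentration that inhibits growth by half.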 The source made the active and inactive calls. Rule as the data show it: active = GI50 up to about 1.1 µM and inactive = higher.

Tests used:
Experiment in all cases: NCI-60 cell line screen, 48 h
RPMI-8226 = system: RPMI-8226
SK-OV-3 = system: SK-OV-3
M19-MEL = system: M19-MEL
NCI-H522 = system: NCI-H522
A549 = system: A549
K562 = system: K562
UO-31 = system: UO-31
M14 = system: M14
SNB-19 = system: SNB-19
KM-20L2 = system: KM-20L2
HOP-92 = system: HOP-92
MOLT-4 = system: MOLT-4
NCI-H460 = system: NCI-H460
UACC-257 = system: UACC-257
COLO 205 = system: COLO 205
TK-10 = system: TK-10
HL-60 = system: HL-60
MDA-MB-231 = system: MDA-MB-231
DU-145 = system: DU-145
MDA-MB-435 = system: MDA-MB-435

SMILES | GI50 (RPMI-8226) | GI50 (SK-OV-3) | GI50 (M19-MEL) | GI50 (NCI-H522) | GI50 (A549) | GI50 (K562) | GI50 (UO-31) | GI50 (M14) | GI50 (SNB-19) | GI50 (KM-20L2) | GI50 (HOP-92) | GI50 (MOLT-4) | GI50 (NCI-H460) | GI50 (UACC-257) | GI50 (COLO 205) | GI50 (TK-10) | GI50 (HL-60) | GI50 (MDA-MB-231) | GI50 (DU-145) | GI50 (MDA-MB-435)
COc1ccc(/C(Cl)=C(\C=N/O)c2ccc(OC)c(OC)c2)cc1OC | > 100 µM (inactive) | > 100 µM (inactive) | > 100 µM (inactive) | > 100 µM (inactive) | > 100 µM (inactive) | > 100 µM (inactive) | > 100 µM (inactive) | 51.3 µM (inactive) | > 100 µM (inactive) | > 100 µM (inactive) | 63.4 µM (inactive) | > 100 µM (inactive) | > 100 µM (inactive) | > 100 µM (inactive) | > 100 µM (inactive) | > 100 µM (inactive) | > 100 µM (inactive) | – | – | –
C/C(CC(=O)N(C(C)C)C(C)C)=N\NC(=O)c1ccncc1 | > 100 µM (inactive) | > 100 µM (inactive) | > 100 µM (inactive) | > 100 µM (inactive) | > 100 µM (inactive) | > 100 µM (inactive) | > 100 µM (inactive) | > 100 µM (inactive) | > 100 µM (inactive) | > 100 µM (inactive) | > 100 µM (inactive) | > 100 µM (inactive) | – | > 100 µM (inactive) | > 100 µM (inactive) | – | > 100 µM (inactive) | – | – | –
Cc1ccccc1C(=O)N1CCN(C(=O)c2ccccc2C)CC1 | > 100 µM (inactive) | > 100 µM (inactive) | > 100 µM (inactive) | > 100 µM (inactive) | > 100 µM (inactive) | > 100 µM (inactive) | > 100 µM (inactive) | > 100 µM (inactive) | > 100 µM (inactive) | > 100 µM (inactive) | > 100 µM (inactive) | > 100 µM (inactive) | > 100 µM (inactive) | > 100 µM (inactive) | – | > 100 µM (inactive) | > 100 µM (inactive) | – | – | –
Cn1c(C2CC(C)(C)c3c2c2ccccc2n3C)cc2ccccc21 (configuration not stated) | 118 µM (inactive) | > 304 µM (inactive) | > 304 µM (inactive) | 72.8 µM (inactive) | > 304 µM (inactive) | > 304 µM (inactive) | – | – | > 304 µM (inactive) | > 304 µM (inactive) | 40.9 µM (inactive) | > 304 µM (inactive) | > 304 µM (inactive) | 265 µM (inactive) | > 304 µM (inactive) | > 304 µM (inactive) | > 304 µM (inactive) | – | – | –
Nc1ccc(S(=O)(=O)Nc2ccc(Nc3c4ccccc4nc4ccccc34)cc2)cc1 | 0.0164 µM (active) | 0.0174 µM (active) | 0.115 µM (active) | 0.0695 µM (active) | < 0.01 µM (active) | 0.0716 µM (active) | 0.195 µM (active) | 0.0298 µM (active) | 0.0182 µM (active) | 0.215 µM (active) | 0.5 µM (active) | < 0.01 µM (active) | 0.0347 µM (active) | 1.87 µM (inactive) | 0.483 µM (active) | 0.566 µM (active) | < 0.0102 µM (active) | 2.08 µM (inactive) | < 0.01 µM (active) | 9.33 µM (inactive)
O=C1C2=C(c3ccccc31)C(c1ccc(F)cc1)N1C(=O)CCSC1=N2 (configuration not stated) | 49.2 µM (inactive) | > 100 µM (inactive) | > 100 µM (inactive) | 72.8 µM (inactive) | > 100 µM (inactive) | > 100 µM (inactive) | 39.9 µM (inactive) | > 100 µM (inactive) | > 100 µM (inactive) | > 100 µM (inactive) | 24.7 µM (inactive) | 64.6 µM (inactive) | > 100 µM (inactive) | > 100 µM (inactive) | > 100 µM (inactive) | > 100 µM (inactive) | 65.6 µM (inactive) | – | – | –
NC1=C(Br)C(=O)c2ncccc2C1=O | 0.942 µM (active) | 1.81 µM (inactive) | 0.159 µM (active) | 0.321 µM (active) | 0.855 µM (active) | 0.277 µM (active) | 0.316 µM (active) | 0.673 µM (active) | 1.25 µM (inactive) | 1.86 µM (inactive) | 1.45 µM (inactive) | 1.63 µM (inactive) | 0.393 µM (active) | 0.483 µM (active) | 1.71 µM (inactive) | 2.62 µM (inactive) | 0.505 µM (active) | – | – | –
